In ChEMBL document CHEMBL1201862, “PubChem BioAssay data set” (2004):
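Test compounds were applied to cells in 96-well plates for 48 hours at 5 doses. GI50 = concentration required for 50% inhibition of growth.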 The source made the active and inactive calls. Rule as the data show it: active = GI50 up to about 1.1 µM and inactive = higher.

Experiments:
Test in all cases: NCI-60 cell line screen, 48 h
KM12 = test system: KM12
MOLT-4 = test system: MOLT-4
RXF 393 = test system: RXF 393
A549 = test system: A549
HL-60 = test system: HL-60
CCRF-CEM = test system: CCRF-CEM
SNB-19 = test system: SNB-19
OVCAR-8 = test system: OVCAR-8
HCT-116 = test system: HCT-116
HOP-92 = test system: HOP-92
HOP-62 = test system: HOP-62
M14 = test system: M14
HT-29 = test system: HT-29
SK-MEL-28 = test system: SK-MEL-28
SK-MEL-2 = test system: SK-MEL-2
UACC-257 = test system: UACC-257
IGROV-1 = test system: IGROV-1
K562 = test system: K562
OVCAR-4 = test system: OVCAR-4

Measured: GI50

COc1ccc([Se]c2ccc(OC)cc2)cc1
inactive: KM12 > 100 µM | MOLT-4 41.5 µM | RXF 393 19.5 µM | A549 > 100 µM | HL-60 41.5 µM | CCRF-CEM 58.9 µM | SNB-19 > 100 µM | OVCAR-8 > 100 µM | HCT-116 55.2 µM | HOP-92 23.9 µM | HOP-62 > 100 µM | M14 > 100 µM | HT-29 43.6 µM | SK-MEL-28 > 100 µM | SK-MEL-2 > 100 µM | UACC-257 48.2 µM | IGROV-1 > 100 µM | K562 60.1 µM

COC(=O)c1c2c(cc3c1CC1(Cc4cc5c(c(C=O)c4C1)CCCC5)C3)CCCC2 (stereo not drawn)
inactive: MOLT-4 55.1 µM | RXF 393 32.7 µM | A549 33.5 µM | HL-60 30 µM | OVCAR-8 87.5 µM | OVCAR-4 34.1 µM | HCT-116 23.3 µM | HOP-92 56.6 µM | HOP-62 31.8 µM | M14 > 100 µM | HT-29 51.3 µM | SK-MEL-2 10.2 µM | UACC-257 50.5 µM | IGROV-1 81.5 µM | K562 33.2 µM

Oc1cn(-c2ccc(Cl)cc2)nc1-c1n[nH]c(=S)n1-c1ccccc1
inactive: KM12 4.36 µM | MOLT-4 62.7 µM | RXF 393 11.1 µM | A549 14.1 µM | HL-60 4.13 µM | SNB-19 16.8 µM | OVCAR-8 14.9 µM | OVCAR-4 52.6 µM | HCT-116 6.37 µM | HOP-92 > 100 µM | HOP-62 10 µM | M14 7 µM | HT-29 19.8 µM | SK-MEL-28 16.8 µM | SK-MEL-2 22.4 µM | UACC-257 20.7 µM | IGROV-1 4.6 µM | K562 3.95 µM

C1=C2/CC[C@H](Sc3ccccc3)C2C2(CCCCC/1)OCCO2 (stereo partly drawn)
inactive: KM12 26.5 µM | MOLT-4 16.6 µM | RXF 393 15.7 µM | HL-60 8.41 µM | CCRF-CEM 28.6 µM | SNB-19 > 100 µM | OVCAR-8 39.3 µM | HCT-116 16.5 µM | HOP-92 3.72 µM | HOP-62 19.3 µM | HT-29 14.4 µM | SK-MEL-28 30.2 µM | SK-MEL-2 15.8 µM | UACC-257 15.9 µM | IGROV-1 27.9 µM | K562 24.7 µM

N#CCCN(CCC#N)c1ccc(C(=O)NN)cc1
inactive: KM12 > 100 µM | MOLT-4 > 100 µM | RXF 393 > 100 µM | A549 > 100 µM | HL-60 > 100 µM | CCRF-CEM > 100 µM | SNB-19 > 100 µM | OVCAR-8 > 100 µM | OVCAR-4 > 100 µM | HCT-116 > 100 µM | HOP-92 > 100 µM | HOP-62 > 100 µM | M14 > 100 µM | HT-29 > 100 µM | SK-MEL-28 > 100 µM | UACC-257 > 100 µM | IGROV-1 > 100 µM | K562 > 100 µM

CN[C@@H](C)[C@H](NC)c1ccccc1
inactive: KM12 > 100 µM | MOLT-4 > 100 µM | RXF 393 > 100 µM | A549 > 100 µM | HL-60 > 100 µM | CCRF-CEM > 100 µM | SNB-19 > 100 µM | OVCAR-8 > 100 µM | HCT-116 > 100 µM | HOP-92 > 100 µM | M14 > 100 µM | HT-29 > 100 µM | SK-MEL-28 > 100 µM | UACC-257 > 100 µM | IGROV-1 > 100 µM | K562 > 100 µM

C[C@@H]1OC2(O)[C@H]3CCCN3S(=O)(=O)CCN2C1=O (stereo partly drawn)
inactive: KM12 > 100 µM | MOLT-4 > 100 µM | RXF 393 > 100 µM | A549 > 100 µM | HL-60 > 100 µM | CCRF-CEM > 100 µM | SNB-19 > 100 µM | OVCAR-8 > 100 µM | OVCAR-4 > 100 µM | HCT-116 > 100 µM | HOP-92 > 100 µM | HOP-62 > 100 µM | M14 > 100 µM | HT-29 > 100 µM | SK-MEL-28 > 100 µM | UACC-257 > 100 µM | IGROV-1 > 100 µM | K562 > 100 µM

COC(=O)C(C(=O)C(=O)Nc1c(C)cccc1C)c1cnc2ccccc2n1 (stereo not drawn)
inactive: KM12 > 100 µM | MOLT-4 > 100 µM | RXF 393 > 100 µM | A549 > 100 µM | HL-60 > 100 µM | CCRF-CEM > 100 µM | SNB-19 > 100 µM | OVCAR-8 > 100 µM | OVCAR-4 > 100 µM | HCT-116 > 100 µM | HOP-92 > 100 µM | M14 > 100 µM | HT-29 > 100 µM | SK-MEL-28 > 100 µM | SK-MEL-2 > 100 µM | UACC-257 > 100 µM | IGROV-1 > 100 µM | K562 > 100 µM

CCc1cccc(C)c1NC(=O)CC(=O)NNC(N)=S
inactive: KM12 > 100 µM | MOLT-4 > 100 µM | RXF 393 > 100 µM | A549 > 100 µM | HL-60 > 100 µM | CCRF-CEM > 100 µM | SNB-19 > 100 µM | OVCAR-8 > 100 µM | OVCAR-4 > 100 µM | HOP-92 > 100 µM | HOP-62 > 100 µM | M14 > 100 µM | HT-29 > 100 µM | SK-MEL-28 > 100 µM | UACC-257 > 100 µM | K562 > 100 µM

CC(O[Si](c1ccccc1)(c1ccccc1)C(C)(C)C)[C@H](NC(=O)OC(C)(C)C)C(=O)O[Si](c1ccccc1)(c1ccccc1)C(C)(C)C (stereo partly drawn)
inactive: KM12 9.91 µM | MOLT-4 10.6 µM | RXF 393 13 µM | A549 11 µM | HL-60 14.4 µM | CCRF-CEM 20 µM | SNB-19 15.5 µM | OVCAR-8 15.6 µM | OVCAR-4 1.46 µM | HCT-116 11.2 µM | HOP-92 10.9 µM | HOP-62 18.2 µM | M14 15.7 µM | HT-29 11.7 µM | SK-MEL-28 14.3 µM | UACC-257 14.9 µM | IGROV-1 14.9 µM | K562 13.2 µM

COc1ccc(NC(=O)C(=O)Cc2nc3ccc([N+](=O)[O-])cc3nc2O)c(OC)c1
inactive: KM12 > 100 µM | MOLT-4 > 100 µM | RXF 393 > 100 µM | A549 > 100 µM | HL-60 > 100 µM | CCRF-CEM > 100 µM | SNB-19 > 100 µM | OVCAR-4 > 100 µM | HCT-116 > 100 µM | HOP-92 > 100 µM | M14 > 100 µM | HT-29 > 100 µM | SK-MEL-28 > 100 µM | SK-MEL-2 > 100 µM | UACC-257 > 100 µM | IGROV-1 > 100 µM | K562 > 100 µM
